Consider five compounds from ChEMBL document CHEMBL4616712, “Design and Synthesis of 1,2-Deoxy-pyranose Derivatives of Spliceostatin A toward Prostate Cancer Treatment” (ACS Med Chem Lett, 2020).

A short description of data set [1]: Toxicity in BALB/c mouse assessed as mouse death at 280 nM/body, iv measured after 24 hrs. It counts as organism-based. Conditions: in vivo, 0.28 µM.
For another data set, the system named is CWR22R. The data set can be described thus: Suppression of AR-V7 expression in human CWR22Rv1 cells expressing GFP measured after 3 days by FACS assay. It counts as functional, cell-based. Conditions: 22Rv1, 72 h.
The test system of a further data set is LNCaP. The data set can be described thus: Suppression of AR-V7 expression in human LNCAP cells expressing GFP. The data set is classed as functional, cell-based.
Data set [2] is described as follows: Toxicity in BALB/c mouse assessed as effect on weight loss at 280 nM/body, iv administered on day 2 and day 4. The following applies: in vivo, 0.28 µM. The data set is classed as organism-based.
Data set [3] can be described thus: Toxicity in BALB/c mouse assessed as mouse death at 280 nM/body, iv administered on day 2 and day 4. Conditions: in vivo, 0.28 µM. The data set is classed as organism-based.

For `CO[C@]1(C)C[C@@]2(CO2)[C@H](O)[C@@H](/C=C/C(C)=C/C[C@@H]2O[C@H](C)[C@H](NC(=O)/C=C\[C@H](C)OC(C)=O)C[C@@H]2C)O1`, the Activity entry in data set [1] was “Toxic”. This compound had a 50% inhibitory concentration (IC50) with CWR22R of 0.6 nM.

The compound `CC(=O)O[C@@H](C)/C=C\C(=O)N[C@@H]1C[C@H](C)[C@H](C/C=C(C)/C=C/[C@H]2OCC[C@]3(O[C@H]3C)[C@@H]2O)O[C@@H]1C` registered an IC50 in the data set with CWR22R of 187 nM.

With `CC(=O)O[C@@H](C)/C=C\C(=O)N[C@@H]1C[C@H](C)[C@H](C/C=C(C)/C=C/[C@H]2O[C@H](c3ccccc3)C[C@@]3(CO3)[C@@H]2O)O[C@@H]1C`, in the data set on LNCaP, 132 nM corresponded to half-maximal inhibition (IC50). In the data set on CWR22R, `CC(=O)O[C@@H](C)/C=C\C(=O)N[C@@H]1C[C@H](C)[C@H](C/C=C(C)/C=C/[C@H]2OCC[C@]3(O[C@@H]3C)[C@@H]2O)O[C@@H]1C` yielded a concentration for half-maximal inhibition (IC50) of 202 nM. For the compound `CC(=O)O[C@@H](C)/C=C\C(=O)N[C@@H]1C[C@H](C)[C@H](C/C=C(C)/C=C/[C@H]2OCC[C@@]3(CO3)[C@@H]2O)O[C@@H]1C`, the Activity entry in data set [2] and in data set [3] was “Non-Toxic” throughout. This compound also gave a 50% inhibitory concentration (IC50) in the data set on CWR22R of 3.3 nM.
